Reference: PubChem BioAssay (NCI)
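Following 48 hours of exposure in 96-well plates, responses at five concentrations were used to interpolate endpoints linearly. At the TGI there is no net growth.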

Tests used:
Assay in all cases: NCI tumour cell line growth inhibition, 48 h
MCF7 breast = test system: MCF7 breast
MALME-3M melanoma = test system: MALME-3M melanoma
RXF 393 renal = test system: RXF 393 renal
MDA-MB-435 = test system: MDA-MB-435
OVCAR-4 ovarian = test system: OVCAR-4 ovarian
IGROV1 ovarian = test system: IGROV1 ovarian
U251 CNS = test system: U251 CNS
786-0 renal = test system: 786-0 renal
RPMI-8226 leukemia = test system: RPMI-8226 leukemia
MOLT-4 leukemia = test system: MOLT-4 leukemia
M14 melanoma = test system: M14 melanoma
EKVX NSCLC = test system: EKVX NSCLC
HCC-2998 colon = test system: HCC-2998 colon
A498 renal = test system: A498 renal
SNB-75 CNS = test system: SNB-75 CNS
K-562 leukemia = test system: K-562 leukemia
OVCAR-8 ovarian = test system: OVCAR-8 ovarian
HS 578T breast = test system: HS 578T breast
OVCAR-5 ovarian = test system: OVCAR-5 ovarian
DU-145 prostate = test system: DU-145 prostate
A549 NSCLC = test system: A549 NSCLC
UO-31 renal = test system: UO-31 renal
SF-539 CNS = test system: SF-539 CNS
SK-MEL-5 melanoma = test system: SK-MEL-5 melanoma
HCT-116 colon = test system: HCT-116 colon
NCI-H460 lung = test system: NCI-H460 lung
SK-MEL-2 melanoma = test system: SK-MEL-2 melanoma
HCT-15 colon = test system: HCT-15 colon
MDA-MB-231 breast = test system: MDA-MB-231 breast
SF-295 CNS = test system: SF-295 CNS
SW-620 colon = test system: SW-620 colon
SNB-19 CNS = test system: SNB-19 CNS
NCI-H23 lung = test system: NCI-H23 lung
MDA-N = test system: MDA-N
KM12 colon = test system: KM12 colon
CCRF-CEM leukemia = test system: CCRF-CEM leukemia
SK-MEL-28 melanoma = test system: SK-MEL-28 melanoma
OVCAR-3 ovarian = test system: OVCAR-3 ovarian
UACC-257 melanoma = test system: UACC-257 melanoma
HT29 colon = test system: HT29 colon
TK-10 renal = test system: TK-10 renal
T-47D breast = test system: T-47D breast
NCI-H226 lung = test system: NCI-H226 lung
SN12C renal = test system: SN12C renal
CAKI-1 renal = test system: CAKI-1 renal
HL-60(TB) leukemia = test system: HL-60(TB) leukemia
SF-268 CNS = test system: SF-268 CNS
SR leukemia = test system: SR leukemia
ACHN renal = test system: ACHN renal
HOP-62 NSCLC = test system: HOP-62 NSCLC
COLO 205 colon = test system: COLO 205 colon
UACC-62 melanoma = test system: UACC-62 melanoma
LOX IMVI melanoma = test system: LOX IMVI melanoma
SK-OV-3 ovarian = test system: SK-OV-3 ovarian
PC-3 prostate = test system: PC-3 prostate
NCI-H522 lung = test system: NCI-H522 lung
NCI/ADR-RES ovarian = test system: NCI/ADR-RES ovarian
BT-549 breast = test system: BT-549 breast

`O=C1OCC(CN2CCC(n3c(=O)[nH]c4ccccc43)CC2)=C1c1ccccc1` gave a TGI (MCF7 breast) of 96.4 µM, a TGI (MALME-3M melanoma) of 56.6 µM and a TGI (RXF 393 renal) of over 100 µM. The TGI (MDA-MB-435) was 62.4 µM, the TGI (OVCAR-4 ovarian) was 39.6 µM and the TGI (IGROV1 ovarian) was 51.1 µM. For the same compound, the TGI (U251 CNS) was over 100 µM, the TGI (786-0 renal) was 82.5 µM and the TGI (RPMI-8226 leukemia) was 56.1 µM. It also gave a TGI (MOLT-4 leukemia) of 60 µM, a TGI (M14 melanoma) of 33.4 µM and a TGI (EKVX NSCLC) of 57.1 µM. It also gave a TGI (HCC-2998 colon) of 77.2 µM, a TGI (A498 renal) of 68.6 µM and a TGI (SNB-75 CNS) of 72.4 µM. It also gave a TGI (K-562 leukemia) of over 100 µM, a TGI (OVCAR-8 ovarian) of 31.6 µM and a TGI (HS 578T breast) of 60.4 µM. It also gave a TGI (OVCAR-5 ovarian) of over 100 µM, a TGI (DU-145 prostate) of 71.7 µM and a TGI (A549 NSCLC) of over 100 µM. For the same compound, the TGI (UO-31 renal) was 35.2 µM, the TGI (SF-539 CNS) was 35.6 µM and the TGI (SK-MEL-5 melanoma) was 28.9 µM. It also gave a TGI (HCT-116 colon) of 92.7 µM, a TGI (NCI-H460 lung) of 21.2 µM and a TGI (SK-MEL-2 melanoma) of 38.1 µM. For the same compound, the TGI (HCT-15 colon) was 54.9 µM, the TGI (MDA-MB-231 breast) was 79.3 µM and the TGI (SF-295 CNS) was 72.6 µM. For the same compound, the TGI (SW-620 colon) was over 100 µM, the TGI (SNB-19 CNS) was 67.3 µM and the TGI (NCI-H23 lung) was 52.2 µM. The TGI (MDA-N) was 78.7 µM, the TGI (KM12 colon) was 31.2 µM and the TGI (CCRF-CEM leukemia) was 60.5 µM. The TGI (SK-MEL-28 melanoma) was 61 µM, the TGI (OVCAR-3 ovarian) was 60.6 µM and the TGI (UACC-257 melanoma) was 47.3 µM. The TGI (HT29 colon) was 58.6 µM, the TGI (TK-10 renal) was 63.1 µM and the TGI (T-47D breast) was 24.6 µM. For the same compound, the TGI (NCI-H226 lung) was 76.7 µM, the TGI (SN12C renal) was 53.1 µM and the TGI (CAKI-1 renal) was 51.4 µM. It also gave a TGI (HL-60(TB) leukemia) of 40.7 µM, a TGI (SF-268 CNS) of 95.5 µM and a TGI (SR leukemia) of 82.5 µM. The TGI (ACHN renal) was 89.6 µM, the TGI (HOP-62 NSCLC) was 64.5 µM and the TGI (COLO 205 colon) was 28.1 µM. For the same compound, the TGI (UACC-62 melanoma) was 26.9 µM, the TGI (LOX IMVI melanoma) was 56.2 µM and the TGI (SK-OV-3 ovarian) was 94.2 µM. For the same compound, the TGI (PC-3 prostate) was 41.6 µM, the TGI (NCI-H522 lung) was 46.5 µM and the TGI (NCI/ADR-RES ovarian) was 59.6 µM.

In the case of `COc1ccc(OC/C(N=Cc2cccnc2)=N/NC(=O)c2ccncc2)cc1`, the TGI (MCF7 breast) is reported as over 100 µM, the TGI (MALME-3M melanoma) is reported as over 100 µM and the TGI (RXF 393 renal) is reported as over 100 µM. For the same compound, the TGI (MDA-MB-435) was 82.1 µM, the TGI (OVCAR-4 ovarian) was over 100 µM and the TGI (IGROV1 ovarian) was over 100 µM. It also gave a TGI (U251 CNS) of over 100 µM, a TGI (786-0 renal) of over 100 µM and a TGI (RPMI-8226 leukemia) of over 100 µM. For the same compound, the TGI (MOLT-4 leukemia) was over 100 µM, the TGI (M14 melanoma) was over 100 µM and the TGI (EKVX NSCLC) was over 100 µM. For the same compound, the TGI (HCC-2998 colon) was over 100 µM, the TGI (A498 renal) was over 100 µM and the TGI (SNB-75 CNS) was 85.2 µM. The TGI (K-562 leukemia) was over 100 µM, the TGI (OVCAR-8 ovarian) was over 100 µM and the TGI (HS 578T breast) was over 100 µM. The TGI (OVCAR-5 ovarian) was over 100 µM, the TGI (DU-145 prostate) was over 100 µM and the TGI (A549 NSCLC) was over 100 µM. The TGI (SF-539 CNS) was over 100 µM, the TGI (HCT-116 colon) was over 100 µM and the TGI (NCI-H460 lung) was over 100 µM. The TGI (SK-MEL-2 melanoma) was over 100 µM, the TGI (HCT-15 colon) was over 100 µM and the TGI (MDA-MB-231 breast) was over 100 µM. For the same compound, the TGI (SF-295 CNS) was over 100 µM, the TGI (SW-620 colon) was over 100 µM and the TGI (SNB-19 CNS) was over 100 µM. It also gave a TGI (NCI-H23 lung) of over 100 µM, a TGI (MDA-N) of 45.6 µM and a TGI (KM12 colon) of over 100 µM. It also gave a TGI (CCRF-CEM leukemia) of over 100 µM, a TGI (SK-MEL-28 melanoma) of over 100 µM and a TGI (OVCAR-3 ovarian) of over 100 µM. For the same compound, the TGI (UACC-257 melanoma) was over 100 µM, the TGI (BT-549 breast) was over 100 µM and the TGI (HT29 colon) was over 100 µM. For the same compound, the TGI (TK-10 renal) was over 100 µM, the TGI (T-47D breast) was over 100 µM and the TGI (NCI-H226 lung) was over 100 µM. For the same compound, the TGI (SN12C renal) was over 100 µM, the TGI (CAKI-1 renal) was over 100 µM and the TGI (HL-60(TB) leukemia) was over 100 µM. For the same compound, the TGI (SF-268 CNS) was over 100 µM, the TGI (ACHN renal) was over 100 µM and the TGI (HOP-62 NSCLC) was over 100 µM. It also gave a TGI (COLO 205 colon) of over 100 µM, a TGI (UACC-62 melanoma) of over 100 µM and a TGI (LOX IMVI melanoma) of over 100 µM. The TGI (SK-OV-3 ovarian) was over 100 µM, the TGI (PC-3 prostate) was over 100 µM and the TGI (NCI-H522 lung) was 34 µM. It also gave a TGI (NCI/ADR-RES ovarian) of over 100 µM.
